Experimental data published in patent US9814726B2, “Composition for preventing or treating fatty liver diseases” (LG CHEM, LTD., priority 2014, dated 2017).

Tests used:
ob/ob mice with MCD diet = assay: Steatohepatitis model accompanying obesity: ob/ob mice with MCD (methionine choline-deficient) diet; format: in vivo, mouse
[1] = tested on: C57BL/6J Lep(−/−) male (ob/ob) mice; assay: Obese fatty liver model: ob/ob mice on normal chow diet, oral treatment for 4 weeks, liver and serum analysis; format: in vivo, mouse
Description: As experimental animals, 6-week-old male ob/+ mouse for control, and 6-week-old C57BL/6J Lep(−/−) male (ob/ob) mice were purchased from Harlan (Indianapolis, Ind.). The purchased mice were maintained under standard condition (25° C., 55% humidity and 12-hour light periodicity) with normal chow diet. 30 mice were divided into 3 groups, 10 mice in each group. Group 1 included 10 C57BL/6J(ob/+ control group) mice, Group 2 was vehicle-treated 10 ob/ob mice treated with saline solution, and Group 3 was a group in which (tetrahydropyran-4-yl)-[2-phenyl-5-(1,1-dioxo-thiomorpholin-4-yl)methyl-1H-indol-7-yl]amine (LG Life Sciences Ltd., Daejeon, Republic of Korea) was treated once a day by 20 mg/kg dosage. Saline solution and (tetrahydropyran-4-yl)-[2-phenyl-5-(1,1-dioxo-thiomorpholin-4-yl)methyl-1H-indol-7-yl]amine solution were orally administered for 4 weeks. After treatment, animals were anesthetized and sacrificed, and livers were rapidly taken and stored for the next analysis. […]

[2] = 20 mg/kg/day, vs vehicle-treated group, FIG. 5A/5B
[3] = ob/ob mice, 20 mg/kg/day, FIG. 2
[4] = ob/ob mice, oral 20 mg/kg once a day, 4 weeks, p<0.001 vs vehicle
[5] = ob/ob mice, oral 20 mg/kg once a day, 4 weeks, vs vehicle

O=S1(=O)CCN(Cc2cc(NC3CCOCC3)c3[nH]c(-c4ccccc4)cc3c2)CC1 [Comp., (tetrahydropyran-4-yl)-[2-phenyl-5-(1,1-dioxo-thiomorpholin-4-yl)methyl-1H-indol-7-yl]amine]
amount of ALT in blood serum (ob/ob mice with MCD diet; 20 mg/kg/day): remarkably decreased
amount of AST in blood serum (ob/ob mice with MCD diet; 20 mg/kg/day): remarkably decreased
liver TG amount (ob/ob mice with MCD diet; 20 mg/kg/day (vehicle 400+/−80), FIG. 5C): 210+/−20 mg/g liver
phosphorylation of fibrosis markers (NF-γB p65, NF-κB p105, p38 and JNK 1/2) (ob/ob mice with MCD diet; 20 mg/kg/day, FIG. 5D): inhibited
decrease of liver TG amount (ob/ob mice with MCD diet; 20 mg/kg/day, vs vehicle, FIG. 5C): about 50%
expression of collagen I (liver fibrosis) (ob/ob mice with MCD diet; [2]): inhibited
intensity of trichrome staining (liver fibrosis) (ob/ob mice with MCD diet; [2]): inhibited
activation of the mitochondrial respiration chain complexes I, III, IV and V ([1]; ob/ob mice liver, 20 mg/kg/day, FIG. 3): meaningfully increased
OXPHOS complexes I, III, IV and V by BN-PAGE: binding between the complexes ([1]; ob/ob mice treated for 4 weeks, 20 mg/kg/day): enhanced
amount of TBARS (oxidative stress, lipid oxidation) [1, 3]: significant decrease
level of 3-NT (nitrotyrosine) in liver [1, 3]: considerably decreased
amount of TNF-alpha in minced liver samples (ELISA) ([1]; ob/ob mice, 20 mg/kg/day, FIG. 4B): significantly low amount
expression of liver mitochondrial complex I, III, IV and V ([1]; ob/ob mice, 20 mg/kg/day, compared with ob/+ control group, FIG. 3A): remained up to the level of the control group
expression of mRNA of TNF-α in the liver ([1]; ob/ob mice, 20 mg/kg/day, vs vehicle): inhibited
amount of IL-6 mRNA ([1]; ob/ob mice, 20 mg/kg/day, vs vehicle group): no difference
number of 8-OHdG positive liver cells (DNA damage by oxidative stress) ([1]; ob/ob mice, 20 mg/kg/day, vs vehicle, FIG. 2): remarkably low
phosphorylation of NF-κB p65, NF-κB p105, p38 and JNK 1/2 in liver (immunoblotting) ([1]; ob/ob mice, 20 mg/kg/day, vs vehicle, FIG. 4A): significantly decreased
inflammation reaction: infiltration of activated macrophages in liver (immune staining of F4/80 and Cd68) ([1]; ob/ob mice, 20 mg/kg/day, vs vehicle, FIG. 4C and 4D): decreased
fatty tissue in liver (H&E staining) ([1]; ob/ob mice, oral 20 mg/kg once a day, 4 weeks, FIG. 1): remarkably decreased
TG level in the blood serum ([1]; ob/ob mice, oral 20 mg/kg once a day, 4 weeks, between groups (data not shown)): did not show much difference
amount of liver TG [1, 4]: significant decrease
amount of liver cholesterol [1, 4]: significant decrease
ALT value in blood serum [1, 5]: decreased
AST value in blood serum [1, 5]: decreased
Oil-Red O stained area in liver ([1]; ob/ob mice, oral 20 mg/kg once a day, 4 weeks, vs vehicle-treated group): remarkably decreased
